Results as given in the supplement of paper PMC10307832.

Tests used:
Test in all cases: relative viability (nuclei count vs DMSO), 5 days (fraction); higher = more cells survive
Vemurafenib + Pictilisib = compound: CCCS(=O)(=O)Nc1ccc(F)c(C(=O)c2c[nH]c3ncc(-c4ccc(Cl)cc4)cc23)c1F [Vemurafenib] + CS(=O)(=O)N1CCN(Cc2cc3nc(-c4cccc5[nH]ncc45)nc(N4CCOCC4)c3s2)CC1 [Pictilisib] (partner 1 µM)
How it was run: (§1)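 After 5 days of treatment, lung cancer cells in 1536-well plates were fixed and stained in a single step (final 0.05% Triton X-100, 1% formaldehyde, 1 ug/ml Hoechst) and their nuclei counted on 4× images. Treatment had been applied by pin tool the day after seeding as one drug alone or as a fixed anchor-drug dose with five library-drug doses (not always all listed) in √10 steps. Relative viability is the nuclei count of treated wells divided by that of vehicle wells, and values are medians of duplicate plates.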

Alpelisib + Dasatinib = compound: Cc1nc(NC(=O)N2CCC[C@H]2C(N)=O)sc1-c1ccnc(C(C)(C)C(F)(F)F)c1 [Alpelisib] + Cc1nc(Nc2ncc(C(=O)Nc3c(C)cccc3Cl)s2)cc(N2CCN(CCO)CC2)n1 [Dasatinib] (partner 0.075 µM)
How it was run: as §1

[1] = compound: CCCS(=O)(=O)Nc1ccc(F)c(C(=O)c2c[nH]c3ncc(-c4ccc(Cl)cc4)cc23)c1F [Vemurafenib] + CC(=O)c1c(C)c2cnc(Nc3ccc(N4CCNCC4)cn3)nc2n(C2CCCC2)c1=O [Palbociclib] (partner 0.5 µM)
How it was run: as §1

Alpelisib + Trametinib = compound: Cc1nc(NC(=O)N2CCC[C@H]2C(N)=O)sc1-c1ccnc(C(C)(C)C(F)(F)F)c1 [Alpelisib] + CC(=O)Nc1cccc(-n2c(=O)n(C3CC3)c(=O)c3c(Nc4ccc(I)cc4F)n(C)c(=O)c(C)c32)c1 [Trametinib] (partner 0.02 µM)
How it was run: as §1

Cell Line	relative viability (Vemurafenib + Pictilisib; first compound 0.03162 µM)	relative viability (Vemurafenib + Pictilisib; first compound 0.3162 µM)	relative viability (Vemurafenib + Pictilisib; first compound 1 µM)	relative viability (Alpelisib + Dasatinib; first compound 0.04 µM)	relative viability (Alpelisib + Dasatinib; first compound 0.1265 µM)	relative viability (Alpelisib + Dasatinib; first compound 0.4 µM)	relative viability (Alpelisib + Dasatinib; first compound 1.265 µM)	relative viability (Alpelisib + Dasatinib; first compound 4 µM)	relative viability ([1]; first compound 0.3162 µM)	relative viability ([1]; first compound 1 µM)	relative viability (Alpelisib + Trametinib; first compound 0.04 µM)	relative viability (Alpelisib + Trametinib; first compound 0.1265 µM)	relative viability (Alpelisib + Trametinib; first compound 0.4 µM)	relative viability (Alpelisib + Trametinib; first compound 1.265 µM)	relative viability (Alpelisib + Trametinib; first compound 4 µM)	relative viability ([1]; first compound 0.1 µM)	relative viability (Vemurafenib + Pictilisib; first compound 0.1 µM)	relative viability ([1]; first compound 0.03162 µM)
PC-3 [JPC-3]	0.649	0.857	0.82	0.948	0.928	0.993	0.903	0.907	0.485	0.565	0.704	0.602	0.685	0.655	0.578			
NCI-H1648									0.341	0.294	0.489	0.496	0.472	0.296	0.245	0.277		
NCI-H1651	0.523	0.665	0.527	0.357	0.463	0.445	0.412	0.293	0.488	0.53	0.752	0.828	0.807	0.759	0.561	0.463	0.6	0.511
NCI-H596	0.352	0.429	0.388	0.564	0.67	0.578	0.337	0.385			0.801	0.815	0.708	0.48	0.44		0.356	
HARA	0.41	0.459	0.486	0.291	0.281	0.215	0.174	0.155	0.304	0.318	0.633	0.732	0.529	0.257	0.265	0.17		0.26
NCI-H727	0.353	0.568	0.315	0.424	0.326	0.476	0.313	0.272	0.811	0.661	0.349	0.387	0.383	0.301	0.308	0.631	0.32	0.699
Calu-6	0.888	0.741	0.822														0.902	
NCI-H1993	0.767	0.801	0.831	0.532	0.469	0.508	0.454	0.569	0.703	0.54	0.539	0.477	0.5	0.483	0.49			0.63
HCC-366	0.137		0.163	0.556	0.596	0.427	0.34	0.207		0.321	0.337	0.289	0.233	0.138	0.13	0.332	0.15	0.359
IA-LM	0.309	0.758	0.476														0.358	
EPLC-272H	0.277	0.295	0.336	0.313	0.281	0.219	0.201	0.202	0.413	0.353	0.268	0.255	0.315	0.238	0.231	0.3	0.278	0.34
NCI-H441	0.44	0.544	0.35	0.525	0.72	0.562	0.311	0.358	0.241	0.237	0.472	0.383	0.388	0.247	0.263	0.185	0.402	0.23
NCI-H1793	0.442	0.477	0.379	0.299	0.379	0.525	0.356	0.351	0.303	0.344	0.424	0.289	0.536	0.406	0.39	0.226		0.287
201T	0.651	0.702	0.677	0.561	0.487	0.541	0.434	0.359	0.365	0.402	0.7	0.723	0.716	0.645	0.586	0.309	0.67	0.37
NCI-H460	0.332	0.271	0.296	0.42	0.484	0.457	0.245	0.174	0.108	0.203	0.093	0.161	0.155	0.0725	0.0881	0.152	0.438	0.146
NCI-H1666	0.387	0.482	0.331	0.851	0.764	0.792	0.698	0.666	0.665	0.641	0.799	0.841	0.903	0.784	0.71	0.699		0.579
HOP-62	0.739	0.517	0.458	0.608	0.598	0.755	0.539	0.531	0.371	0.396	0.353	0.376	0.434	0.384	0.384	0.437	0.589	0.436
SW 1573	0.475	0.585	0.52	0.438	0.458	0.672	0.364	0.202	0.382	0.383	0.562	0.586	0.553	0.363	0.388	0.435	0.511	0.203
NCI-H2085	0.421	0.664	0.416	0.275	0.225	0.265	0.263	0.215	0.416	0.509	0.57	0.468	0.496	0.495	0.338	0.451	0.458	0.422
ABC-1	0.751	0.658	0.753	0.637	0.495	0.823	0.484	0.386	0.767	0.545						0.57	0.536	0.744
NCI-H1299	0.732	0.843	0.622														0.719	
